This note sets out measurements from patent publication US10206399B2, “Herbicidal composition comprising uracil compound as active ingredient” (Dongbu Farm Hannong Co., Ltd., priority 2012, dated 2019).

Where two headings read alike, the source gives them in different places.

One data set relates to Monochoria vaginalis. Briefly: Paddy field farming herbicidal composition test, plant mortality. The data set is classed as in vivo.
The test system of the next data set is Ludwigia prostrate. The data set is described as above. Format: in vivo.
Another data set deals with rice plant. Put plainly: Paddy field farming herbicidal composition test, plant mortality (crop).
A further data set relates to Alopecurus aequalis. Briefly: Dry field farming herbicidal composition test, plant mortality. Format: in vivo. Conditions: in % (unit assumed).
In the next data set the test system is Porippa islandica. The data set is described as above. The data set is classed as in vivo.
Another data set has as its system Capsella bursapastoris. The data set is described as above. The data set is classed as in vivo. Particulars: in % (unit assumed).
A further data set has as its system Lamium amplexicaule. The data set is described as above. Format: in vivo. Particulars: in % (unit assumed).
For another data set, the system named is Echinochloa crus. Described as above. The data set is classed as in vivo.
In a further data set the test system is Digitaria sanguinalis. Described as above. The data set is classed as in vivo.
The test system of another data set is Abutilon theophrasti. The data set is described as above. Format: in vivo.
For a further data set, the system named is Aeschynomene indica. Described as above. Format: in vivo.
The subject of a further data set is wheat. Briefly: Dry field farming herbicidal composition test, plant mortality (crop).
The mark [1] stands for this setting: Echinochloa, read-out: Echinochloa crus mortality, measured value.
Where [2] appears, read: Digitaria sanguinalis, read-out: Digitaria sanguinalis mortality, measured value.
Setting [3] is: Abutilon theophrasti, read-out: Abutilon theophrasti mortality, measured value.
Where [4] appears, read: Aeschynomene indica, read-out: Aeschynomene indica mortality, measured value.
Where [5] appears, read: Pontederia vaginalis, read-out: Monochoria vaginalis mortality (measured value).

From the text for Abutilon theophrasti: (§1) X is % damage by uracil compound (a) of formula 1 at the rate of application of p kg/ha; Y is % damage by conventional herbicidal compound (b) at the rate of application of q kg/ha; and E is the expected damage caused by compounds (a) and (b) at a rate of application of p and q kg/ha.
(§2) The expected activity for a given combination of two herbicides can be calculated using equation 1 above.
From the text for Aeschynomene indica: as §1, §2
From the text for Alopecurus aequalis: as §1, §2
From the text for Capsella bursapastoris: as §1, §2
From the text for Digitaria sanguinalis: as §1, §2
From the text for Echinochloa crus: as §1, §2
From the text for Lamium amplexicaule: as §1, §2
From the text for Ludwigia prostrate: as §1, §2
From the text for Monochoria vaginalis: as §1, §2
From the text for Porippa islandica: as §1, §2
From the text for rice plant: as §1, §2
From the text for wheat: as §1, §2

Turning to `COc1cc(OC)nc(NC(=O)NS(=O)(=O)Cc2ccccc2C(=O)O)n1` [Bensulfuron], the “Monochoria vaginalis mortality (measured value)” value is listed as 15 in the data set on Monochoria vaginalis (10 g/ha), 35 in the data set on Monochoria vaginalis (20 g/ha) and 51 with Monochoria vaginalis (40 g/ha). In addition, the Ludwigia prostrate mortality (measured value) came to 20% with Ludwigia prostrate (10 g/ha), 40% with Ludwigia prostrate (20 g/ha) and 55% with Ludwigia prostrate (40 g/ha). Moreover, the “Rice plant mortality (measured value)” value is listed as 0 in the data set on rice plant (10 g/ha), 0 with rice plant (20 g/ha) and 1 with rice plant (40 g/ha).
As to `Cc1nn(-c2cc(CC(Cl)C(=O)O)c(Cl)cc2F)c(=O)n1C(F)F` (stereo not shown) [Carfentrazone], the “Alopecurus aequalis mortality, measured value” (“Alopecurus aequalis mortality” below) in the data set with Alopecurus aequalis (1 g/ha), with Alopecurus aequalis (2 g/ha) and in the data set with Alopecurus aequalis (4 g/ha) was 0 each time. Besides, the figures for the “Porippa islandica mortality, measured value” (from here on “Porippa islandica mortality”) in the data set on Porippa islandica (1 g/ha), in the data set with Porippa islandica (2 g/ha) and with Porippa islandica (4 g/ha) were 5, 15 and 40, respectively. Moreover, the “Capsella bursapastoris mortality, measured value” (“Capsella bursapastoris mortality” for short) came to 0 in the data set with Capsella bursapastoris (1 g/ha), 15 with Capsella bursapastoris (2 g/ha) and 35 in the data set on Capsella bursapastoris (4 g/ha). The “Lamium amplexicaule mortality, measured value” (from here on “Lamium amplexicaule mortality”) with Lamium amplexicaule (1 g/ha) was 5; in the data set on Lamium amplexicaule (2 g/ha) it was 20; with Lamium amplexicaule (4 g/ha) it was 40. Further, the “Echinochloa crus mortality, measured value” with Echinochloa crus (1 g/ha), in the data set with Echinochloa crus (2 g/ha) and in the data set with Echinochloa crus (4 g/ha) was 0 each time. In addition, the pest or weed control at 5 g/ha in the data set on Echinochloa crus (setting [1]) came to 0%; in the data set on Digitaria sanguinalis (setting [2]) it was 0%; with Abutilon theophrasti (setting [3]) it was 50%; with Aeschynomene indica (setting [4]) it was 45%; in the data set on Monochoria vaginalis (setting [5]), 20%. In addition, the pest or weed control at 10 g/ha was 5% in the data set with Echinochloa crus (setting [1]); 5% in the data set on Digitaria sanguinalis (setting [2]); 75% in the data set with Abutilon theophrasti (setting [3]); 70% with Aeschynomene indica (setting [4]); 45% with Monochoria vaginalis (setting [5]). Further, the “Digitaria sanguinalis mortality, measured value” in the data set on Digitaria sanguinalis (1 g/ha), with Digitaria sanguinalis (2 g/ha) and in the data set on Digitaria sanguinalis (4 g/ha) was 0 each time. The “Abutilon theophrasti mortality, measured value” is 10 in the data set on Abutilon theophrasti (1 g/ha), 25 with Abutilon theophrasti (2 g/ha) and 45 with Abutilon theophrasti (4 g/ha). Further, the “Aeschynomene indica mortality, measured value” with Aeschynomene indica (1 g/ha) came out at 5; in the data set with Aeschynomene indica (2 g/ha) it was 20; in the data set with Aeschynomene indica (4 g/ha), 40. Further, the Ludwigia prostrate mortality (measured value) was found to be 35% in the data set on Ludwigia prostrate (5 g/ha) and 50% with Ludwigia prostrate (10 g/ha). For the same molecule, the “Corn mortality (measured value)” value in the data set with corn (1 g/ha), with corn (2 g/ha) and in the data set on corn (4 g/ha) was 0 in each case. Further, the “Corn mortality, measured value” turned out to be 0 with corn (5 g/ha) and 1 in the data set with corn (10 g/ha). The “Wheat mortality, measured value” in the data set with wheat (1 g/ha), in the data set with wheat (2 g/ha) and in the data set with wheat (4 g/ha) was 0 in each case. Also, the “Rice plant mortality (measured value)” value in the data set on rice plant (5 g/ha) and in the data set on rice plant (10 g/ha) was 0 in each case.
`CC(C)c1ccc(NC(=O)N(C)C)cc1` [Isoproturon]: the “Alopecurus aequalis mortality” value in the data set with Alopecurus aequalis (150 g/ha) is given as 15; with Alopecurus aequalis (300 g/ha) it was 32; in the data set with Alopecurus aequalis (600 g/ha) it was 64. In addition, the “Porippa islandica mortality” value in the data set with Porippa islandica (150 g/ha) was 10; in the data set with Porippa islandica (300 g/ha), 26; in the data set with Porippa islandica (600 g/ha), 53. Besides, the “Capsella bursapastoris mortality” value amounted to 11 in the data set on Capsella bursapastoris (150 g/ha), 29 in the data set on Capsella bursapastoris (300 g/ha) and 63 in the data set on Capsella bursapastoris (600 g/ha). In addition, the entries for the “Lamium amplexicaule mortality” value with Lamium amplexicaule (150 g/ha), in the data set on Lamium amplexicaule (300 g/ha) and in the data set with Lamium amplexicaule (600 g/ha) were 12, 25 and 49, respectively. For the same molecule, the “Wheat mortality, measured value” was found to be 0 in the data set with wheat (150 g/ha), 0 with wheat (300 g/ha) and 1 in the data set on wheat (600 g/ha).
For `COC(=O)c1ccc(CNS(C)(=O)=O)cc1S(=O)(=O)NC(=O)Nc1nc(OC)cc(OC)n1` [Mesosulfuron], the “Alopecurus aequalis mortality” value was 15 in the data set on Alopecurus aequalis (2 g/ha), 32 with Alopecurus aequalis (4 g/ha) and 64 in the data set on Alopecurus aequalis (8 g/ha). Further, the “Porippa islandica mortality” value in the data set with Porippa islandica (2 g/ha) amounted to 12; in the data set with Porippa islandica (4 g/ha), 27; in the data set on Porippa islandica (8 g/ha) it was 61. In addition, the “Capsella bursapastoris mortality” value in the data set with Capsella bursapastoris (2 g/ha) was found to be 10; in the data set on Capsella bursapastoris (4 g/ha), 30; in the data set on Capsella bursapastoris (8 g/ha), 59. For the same molecule, the “Lamium amplexicaule mortality” value in the data set on Lamium amplexicaule (2 g/ha) is on record as 13; in the data set on Lamium amplexicaule (4 g/ha), 26; in the data set with Lamium amplexicaule (8 g/ha) it was 55. For the same molecule, the entries for the “Wheat mortality, measured value” in the data set with wheat (2 g/ha), in the data set with wheat (4 g/ha) and in the data set on wheat (8 g/ha) were 0, 0 and 1, respectively.
As to `COc1nc(C)nc(=NC(=O)NS(=O)(=O)c2ccccc2C(=O)O)[nH]1` [Metsulfuron], the “Alopecurus aequalis mortality” value with Alopecurus aequalis (1 g/ha), in the data set on Alopecurus aequalis (2 g/ha) and in the data set on Alopecurus aequalis (4 g/ha) was 0 throughout. The “Porippa islandica mortality” value with Porippa islandica (1 g/ha) stood at 5; in the data set on Porippa islandica (2 g/ha) it was 20; in the data set with Porippa islandica (4 g/ha), 45. In addition, the “Capsella bursapastoris mortality” value with Capsella bursapastoris (1 g/ha) worked out at 7; in the data set with Capsella bursapastoris (2 g/ha), 24; in the data set with Capsella bursapastoris (4 g/ha), 48. In addition, the “Lamium amplexicaule mortality” value came out at 11 with Lamium amplexicaule (1 g/ha), 29 in the data set on Lamium amplexicaule (2 g/ha) and 57 in the data set on Lamium amplexicaule (4 g/ha). Moreover, the “Wheat mortality, measured value” in the data set on wheat (1 g/ha), with wheat (2 g/ha) and in the data set on wheat (4 g/ha) was 0 in each case.
As for `COc1cc(OC)nc(NC(=O)NS(=O)(=O)c2c(C(=O)O)cnn2C)n1` [Pyrazosulfuron], the “Monochoria vaginalis mortality (measured value)” value came to 20 with Monochoria vaginalis (2 g/ha); 40 with Monochoria vaginalis (4 g/ha); 40 in the data set with Monochoria vaginalis (5 g/ha); 63 with Monochoria vaginalis (8 g/ha); 67 with Monochoria vaginalis (10 g/ha). Further, the Ludwigia prostrate mortality (measured value) in the data set with Ludwigia prostrate (2 g/ha) came out at 15%; with Ludwigia prostrate (4 g/ha), 35%; with Ludwigia prostrate (5 g/ha) it was 45%; in the data set on Ludwigia prostrate (8 g/ha) it was 65%; with Ludwigia prostrate (10 g/ha) it was 62%. In addition, the “Rice plant mortality (measured value)” value in the data set with rice plant (2 g/ha) is on record as 0; with rice plant (4 g/ha), 0; in the data set with rice plant (5 g/ha), 0; in the data set with rice plant (8 g/ha), 1; in the data set on rice plant (10 g/ha), 1.
